From ChEMBL document CHEMBL1821584, “Docking and 3D-QSAR (quantitative structure activity relationship) studies of flavones, the potent inhibitors of p-glycoprotein targeting the nucleotide binding domain” (Eur J Med Chem, 2011) come the findings set out here.

pKd: −log10 of the molar value.

The pKd is the Kd on a negative log10 scale, so that one unit is a factor of ten. The low end stands for a large Kd, the high end for a small Kd.

Chain of ATP-dependent translocase ABCB1 (P08183 whole entry, the tested form may be a part): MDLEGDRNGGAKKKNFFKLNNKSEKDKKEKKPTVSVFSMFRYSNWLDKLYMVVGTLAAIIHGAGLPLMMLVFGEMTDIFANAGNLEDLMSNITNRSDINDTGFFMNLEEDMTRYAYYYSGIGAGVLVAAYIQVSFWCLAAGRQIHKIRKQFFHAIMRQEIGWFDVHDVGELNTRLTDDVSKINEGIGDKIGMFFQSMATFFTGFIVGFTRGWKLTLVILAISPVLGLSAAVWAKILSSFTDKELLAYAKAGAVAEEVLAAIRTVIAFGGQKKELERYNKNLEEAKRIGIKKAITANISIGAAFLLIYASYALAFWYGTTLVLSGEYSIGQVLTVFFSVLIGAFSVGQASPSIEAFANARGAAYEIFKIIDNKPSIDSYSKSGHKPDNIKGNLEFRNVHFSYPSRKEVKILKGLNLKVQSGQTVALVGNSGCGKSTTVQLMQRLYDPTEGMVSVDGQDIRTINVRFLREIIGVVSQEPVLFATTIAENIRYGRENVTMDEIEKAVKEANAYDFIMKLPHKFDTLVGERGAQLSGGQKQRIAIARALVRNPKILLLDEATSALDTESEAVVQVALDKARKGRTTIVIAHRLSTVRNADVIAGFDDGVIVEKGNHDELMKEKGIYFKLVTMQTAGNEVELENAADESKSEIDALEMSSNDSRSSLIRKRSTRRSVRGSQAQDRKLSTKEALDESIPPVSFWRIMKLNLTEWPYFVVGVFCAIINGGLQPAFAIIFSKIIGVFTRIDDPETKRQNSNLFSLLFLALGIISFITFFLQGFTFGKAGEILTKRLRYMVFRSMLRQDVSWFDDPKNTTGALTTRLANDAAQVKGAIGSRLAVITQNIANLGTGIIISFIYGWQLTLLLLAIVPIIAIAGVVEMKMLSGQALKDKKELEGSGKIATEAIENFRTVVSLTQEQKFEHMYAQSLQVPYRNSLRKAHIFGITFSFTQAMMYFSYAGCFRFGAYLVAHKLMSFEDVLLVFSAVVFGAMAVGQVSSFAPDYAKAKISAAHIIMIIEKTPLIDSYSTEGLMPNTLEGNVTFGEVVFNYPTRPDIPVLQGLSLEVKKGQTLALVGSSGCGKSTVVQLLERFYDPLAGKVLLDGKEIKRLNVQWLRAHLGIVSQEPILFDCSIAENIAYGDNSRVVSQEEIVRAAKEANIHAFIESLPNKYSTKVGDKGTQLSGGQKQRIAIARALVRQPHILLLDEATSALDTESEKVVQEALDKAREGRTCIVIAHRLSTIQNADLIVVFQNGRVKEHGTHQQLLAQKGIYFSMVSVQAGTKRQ

This test concerns the target ATP-dependent translocase ABCB1 (Homo sapiens, UniProt P08183). Briefly: Binding affinity to ABCB1 nucleotide binding domain 2.
Compound `O=c1c(O)c(-c2ccccc2)oc2ccccc12` [FLAVONOL] had a pKd of 5.00.
`O=c1cc(-c2ccc(I)cc2)oc2cc(O)cc(O)c12` showed a pKd of 5.66.
The figure for `Cc1c(O)cc2oc(-c3ccccc3)cc(=O)c2c1O` is 5.51; for `O=c1c(O)c(-c2ccc(Cl)cc2Cl)oc2cc(O)cc(O)c12` it is 5.40; for `C=CC(C)(C)c1c(O)cc(O)c2c(=O)c(O)c(-c3ccc(OC)cc3)oc12` it is 6.70.
`O=c1cc(-c2ccccc2)oc2cc(O)ccc12` [7-HYDROXYFLAVONE] gave a negative logarithm of the Kd (pKd) of 4.46.
`O=c1cc(-c2ccccc2)oc2c(Cc3ccccc3)c(O)c(Cc3ccccc3)c(O)c12` showed a negative logarithm of the Kd (pKd) of 7.44.
`O=c1c(O)c(-c2ccc(O)cc2)oc2cc(O)cc(O)c12` [KAEMPFEROL]: the negative logarithm of the Kd (pKd) was 5.17.
On to `C=CC(C)(C)c1c(O)cc(O)c2c(=O)c(O)c(-c3ccccc3)oc12`, for which the negative-log Kd (pKd) was 6.35.
Next, `CC(C)=Cc1c(O)c(C=C(C)C)c2oc(-c3ccccc3)cc(=O)c2c1O`: 7.82; `O=c1cc(-c2ccccc2)oc2cc(O)c(Cc3ccccc3)c(O)c12`: 6.47; `O=c1c(-c2ccc(O)cc2)coc2cc(O)cc(O)c12` [GENISTEIN]: 4.58.
As for `O=c1c(O)c(-c2ccc(F)cc2)oc2cc(O)cc(O)c12`, the pKd was 5.17.
For the compound `O=c1cc(-c2ccc(O)cc2)oc2cc(O)cc(O)c12` [APIGENIN], the pKd is 5.00.
Take `O=c1cc(-c2ccccc2)oc2ccccc12` [FLAVONE]: the pKd was 4.47.
`CC(C)Oc1cc2oc(-c3ccccc3)cc(=O)c2c(O)c1C(C)C` showed a pKd of 6.55.
Compound `O=c1c(O)c(C(c2ccccc2)c2ccccc2)oc2cc(O)cc(O)c12` showed a pKd of 5.70.
Compound `CC(C)=Cc1c(O)cc2oc(-c3ccccc3)c(O)c(=O)c2c1O` gave a negative logarithm of the Kd (pKd) of 6.68.
For the compound `CC(C)=CCC/C(C)=C/c1c(O)cc(O)c2c(=O)cc(-c3ccccc3)oc12`, the pKd is 7.60.
Compound `CCCCCCCCc1ccc(-c2oc3cc(O)cc(O)c3c(=O)c2O)cc1` showed a pKd of 7.24.
Regarding `CC(C)=Cc1c(O)cc2oc(-c3ccccc3)cc(=O)c2c1O`, the pKd is 6.52.
`CC(C)=Cc1c(O)cc(O)c2c(=O)c(O)c(-c3ccccc3)oc12`: the pKd was 6.66.
In turn, `COc1ccc(-c2oc3cc(O)cc(O)c3c(=O)c2O)cc1` [KAEMPFERIDE] had a negative-log Kd (pKd) of 5.35.
As to `O=c1c(O)c(-c2ccc(I)cc2)oc2cc(O)cc(O)c12`, the pKd was 5.96.
Turning to `O=c1cc(-c2ccc(F)c(F)c2)oc2cc(O)cc(O)c12`, the pKd was 5.20.
In the case of `COc1c(-c2ccccc2)oc2cc(O)cc(O)c2c1=O`, the negative-log Kd (pKd) was 5.05.
Next, `O=c1cc(-c2ccccc2)oc2c(Cc3ccccc3)c(O)cc(O)c12`: 6.00; `CC(C)Oc1cc(O)c2c(=O)cc(-c3ccccc3)oc2c1`: 6.00.
For `C=CC(C)(C)c1c(O)cc(O)c2c(=O)cc(-c3ccccc3)oc12`, the pKd was 6.70.
Consider `O=c1c(O)c(-c2ccccc2)oc2cc(O)cc(O)c12` [GALANGIN], for which the negative logarithm of the Kd (pKd) is 5.23.
The figure for `O=c1cc(-c2ccccc2)oc2cc(OCc3ccccc3)cc(O)c12` is 7.17; for `C=CC(C)(C)c1c(OC)cc(O)c2c(=O)c(OC)c(-c3ccccc3)oc12` it is 6.82; for `CC(C)=Cc1c(O)cc(O)c2c(=O)cc(-c3ccccc3)oc12` it is 6.55.
`CC(C)Oc1c(C(C)C)c(O)c2c(=O)cc(-c3ccccc3)oc2c1C(C)C` showed a pKd of 7.48.
On to `CC(C)=CCC/C(C)=C/c1c(O)cc2oc(-c3ccccc3)cc(=O)c2c1O`, for which the negative-log Kd (pKd) was 7.35.
The figure for `COc1cc(O)c2c(=O)cc(-c3ccccc3)oc2c1` [TECHTOCHRYSIN] is 5.20; for `O=c1cc(-c2ccccc2)oc2cc(O)cc(O)c12` [CHRYSIN] it is 5.05; for `CC(C)c1c(O)cc2oc(-c3ccccc3)cc(=O)c2c1O` it is 6.68.
`COc1cc2oc(-c3ccccc3)cc(=O)c2c(O)c1C` showed a negative-log Kd (pKd) of 5.89.
As for `C=CC(C)(C)c1c(O)cc(O)c2c(=O)cc(-c3ccc(O)cc3)oc12`, the negative-log Kd (pKd) was 6.15.
